Experimental data published in the NIST ThermoML archive (doi:10.1021/acs.jced.7b00464).
± gives the expanded uncertainty stated by the source.

Assay: mn = molality of the nth substance listed, in mol/kg
Settings: 101.3 kPa, Liquid; for speed of sound: Frequency=3 MHz, Single path-length method; for mass density: Vibrating tube method

CCCCn1cc[n+](C)c1.[Br-] [1-butyl-3-methylimidazolium bromide] + O
Settings	mass density, 293.15 K [kg/m3]	mass density, 298.15 K [kg/m3]	mass density, 303.15 K [kg/m3]	mass density, 308.15 K [kg/m3]	speed of sound, 293.15 K [m/s]	speed of sound, 298.15 K [m/s]	speed of sound, 303.15 K [m/s]	speed of sound, 308.15 K [m/s]
m1 = 0.1009	1003.27 ± 0.31	1002.03 ± 0.31	1000.58 ± 0.31	998.918 ± 0.31	1493.5 ± 1	1506.5 ± 1	1517.9 ± 1	1527.7 ± 1
m1 = 0.2003	1008.11 ± 0.31	1006.83 ± 0.31	1005.32 ± 0.31	1003.62 ± 0.31	1503.6 ± 1.1	1515.8 ± 1.1	1526.2 ± 1.1	1535.2 ± 1.1
m1 = 0.2985	1012.68 ± 0.31	1011.33 ± 0.31	1009.77 ± 0.31	1008 ± 0.31	1512.9 ± 1.1	1524.5 ± 1.1	1534.1 ± 1.1	1542.4 ± 1.1
m1 = 0.4006	1017.54 ± 0.31	1016.13 ± 0.31	1014.5 ± 0.31	1012.7 ± 0.31	1522.6 ± 1.1	1533.1 ± 1.1	1542 ± 1.1	1549.4 ± 1.1

CCCCn1cc[n+](C)c1.[Cl-] [1-butyl-3-methylimidazolium chloride] + O
Settings	mass density, 293.15 K [kg/m3]	mass density, 298.15 K [kg/m3]	mass density, 303.15 K [kg/m3]	mass density, 308.15 K [kg/m3]	speed of sound, 293.15 K [m/s]	speed of sound, 298.15 K [m/s]	speed of sound, 303.15 K [m/s]	speed of sound, 308.15 K [m/s]
m1 = 0.101	999.535 ± 0.3	998.308 ± 0.3	996.883 ± 0.3	995.222 ± 0.3	1496.7 ± 1	1509.8 ± 1	1521.1 ± 1	1530.8 ± 1
m1 = 0.1997	1000.82 ± 0.3	999.565 ± 0.3	998.065 ± 0.3	996.342 ± 0.3	1510.4 ± 1.1	1522.7 ± 1.1	1533 ± 1.1	1542 ± 1
m1 = 0.3007	1002.1 ± 0.3	1000.79 ± 0.3	999.244 ± 0.3	997.484 ± 0.3	1523.6 ± 1.1	1534.7 ± 1.1	1544.3 ± 1.1	1552.7 ± 1.1
m1 = 0.4004	1003.37 ± 0.3	1002 ± 0.3	1000.4 ± 0.3	998.586 ± 0.3	1536.1 ± 1.1	1546.5 ± 1.1	1555.3 ± 1.1	1562.6 ± 1.1
